Laboratory results taken from patent US8691818B2, “Cyclic triazo and diazo sodium channel blockers” (University Of Greenwich, priority 2008, dated 2014).
Where a name gives a salt, the structure may show the parent alone.

Assays:
sodium channel = test: [14C]guanidine flux: veratrine-evoked uptake of [14C]guanidine into rat forebrain synaptosomes (primary sodium channel assay); format: biochemical; conditions: 30° for 2½ min
Experimental: The screening strategy is designed to select compounds with appropriate sodium channel blocking activity and low side effect liability. To this end all compounds are processed through the primary sodium channel assay (veratrine-evoked uptake of [^14C]guanidine into rat forebrain synaptosomes) and IC50 values computed from generated concentration-effect curves.
Experiments were performed using forebrain (whole brain less cerebellum/medulla) from Male Wistar rats weighing 175-250 g. All efforts were made to reduce the number of animals used and all experiments were carried out in accordance with the UK Animals (Scientific Procedures) Act, 1986 and the European Community Council Directive of 24 Nov. 1986 (86/609/EEC). Following killing of animals by stunning and decapitation, the forebrain (whole brain less cerebellum/medulla) was rapidly dissected and transferred to a weighed tube containing ice-cold 0.25M sucrose.
Synaptosomes (heavy and light mitochondrial fraction containing synaptosomes) were prepared by transferring the forebrain (of known wet weight) to a glass Potter vessel to which 9 volumes ice-cold 0.25M sucrose had been added and homogenising, using a teflon pestle, by 8 ‘up and down strokes’ of a Braun Potter S motor driven homogeniser set to 900 rpm. The resulting homogenate was centrifuged at 1036×g at 4° for 10 min and the supernatant collected. The remaining pellet was resuspended, as above, in fresh ice-cold 0.25M sucrose and the centrifugation step repeated. The supernatant fractions were pooled and centrifuged at 40,000×g (average) at 4° for 15 min and the resulting pellet resuspended in the appropriate assay buffer at a concentration of 20-25 mg wet weight per ml appropriate assay buffer.
Both assays were carried out using 14 ml polypropylene test tubes to which a range of concentrations of the compounds under test were added.
The [^14C] guanidinine flux assay was measured using the method of Pauwels P J et al (1986) but carried out@30° for 2½ min.
(§1) Data are presented as mean±sem of number of experiments indicated in brackets.

[1] = molecular target: T1, DiHydroFolate Reductase (DHFR) (Rattus norvegicus, UniProt Q920D2); test: Inhibition of binding of [3H]methotrexate to rat liver homogenate supernatant; conditions: for inhibition at 125 µM: read-out: [3H]mtx binding (% inhibition @ 125 μM); for inhibition at 99 µM: read-out: [3H]mtx binding % inhibition (* 99 μM, *** uses fresh batch of supernatant), 99 μM, fresh batch of supernatant
T1 construct: from tissue; host or cells: rat liver homogenate supernatant
T1 sequence (Q920D2 1-187): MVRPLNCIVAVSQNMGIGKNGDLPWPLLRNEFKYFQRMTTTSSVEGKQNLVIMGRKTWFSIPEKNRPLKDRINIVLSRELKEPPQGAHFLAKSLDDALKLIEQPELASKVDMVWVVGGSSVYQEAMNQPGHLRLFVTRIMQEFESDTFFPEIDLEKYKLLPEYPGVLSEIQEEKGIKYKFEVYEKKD
Experimental: All steps were carried out at 4° (or on ice). Freshly dissected rat liver was dissected into 0.25M ice-cold Sucrose and subsequently homogenised (U-turrax) in 50 mM pH 6.0 phosphate buffer (10 ml/g tissue) containing 15 mM Dithiothreitol. The resulting homogenate was centrifuged@47,500×g for 20 min and supernatant (filtered through cotton wool to remove fatty lumps) stored @ −80° before use (Rothenberg et al).
Inhibition of the binding of [^3H]methotrexate to rat liver homogenate supernatant fractions were carried out essentially as described by Arons et al, 1975.
as §1

IC50 (sodium channel) [µM]	inhibition at 125 µM [1] [%]	SMILES	other results
1950	31	Nc1nnc(-c2ccc(Cl)nc2)c(N)n1 [CEN-191, 3,5-Diamino-6-[3-(6-chloro-pyridyl)]-1,2,4-triazine]	–
16.2	27	Cn1nc(C2(c3ccc(Cl)cc3)CCCC2)c(N)nc1=N [CEN-150, 5(3)-Amino-6-{1-[1-(4-chlorophenyl)]cyclopentyl}-2,3(2,5)-dihydro-3(5)-imino-2-methyl-1,2,4-triazine methanesulfonate]	–
1000	84	C/C(=C\c1ccccc1)c1nnc(N)nc1N [CEN-112, 3,5-Diamino-6-[E-2-(3-phenyl)propenyl]-1,2,4-triazine]	–
1510	66	Nc1nnc(-c2cccc3c2OC(F)(F)O3)c(N)n1 [CEN-70, 3,5-Diamino-6-[4-(2,2-difluorobenzodioxolo)]-1,2,4-triazine]	–
4	–	CCn1nc(-c2sc(Cl)c(Cl)c2Cl)c(N)nc1=N [CEN-195, 5(3)-Amino-6-{2-(3,4,5-trichloro)thienyl}-2,3(2,5)-dihydro-3(5)-imino-2-ethyl-1,2,4-triazine methanesulfonate]	inhibition at 99 µM [1]: -2%
28	27	CCn1nc(-c2cccc(C(F)(F)F)c2Cl)c(N)nc1=N [CEN-178, 5(3)-Amino-6-(2-chloro-3-trifluoromethyphenyl)-2,3(2,5)-dihydro-3(5)-imino-2-ethyl-1,2,4-triazine methanesulphonate]	–
871	3	Cn1nc(-c2ccccc2OC(F)F)c(N)nc1=N [CEN-146, 5(3)-Amino-6-(2-difluoromethoxyphenyl)-2,3(2,5)-dihydro-3(5)-imino-2-methyl-1,2,4-triazine methanesulfonate]	–
2	–	Nc1nnc(-c2cccc(OCc3ccc(C(F)(F)F)cc3C(F)(F)F)c2)c(N)n1 [CEN-171, 3,5-Diamino-6-[3-(2,4-trifluoromethylbenzyloxy)phenyl]-1,2,4-triazine]	[3H]mtx binding (% inhibition @ 125 μM) [1]: 91%
–	–	COc1ccc2c(OC)cccc2c1-c1nnc(N)nc1N [CEN-156]	IC50 (sodium channel; listed as 156): 246 µM; [3H]mtx binding (% inhibition @ 125 μM) ([1]; listed as 156, 125 µM): 32%
1950	52	CCn1nc(-c2cc(OC)c(OC)c(OC)c2)c(N)nc1=N [CEN-119, 5(3)-Amino-6-(3,4,5-trimethoxyphenyl)-2,3(2,5)-dihydro-3(5)-imino-2-ethyl-1,2,4-triazine methanesulfonate]	–
692	0	Nc1nnc(-c2cccnc2Cl)c(N)n1 [CEN-164, 3,5-Diamino-6-[3-(2-chloropyidyl)]-1,2,4-triazine]	–
> 1000	79	Nc1nnc(-c2ccc3c(c2)OC(F)(F)O3)c(N)n1 [CEN-117, 3,5-Diamino-6-[5-(2,2-difluorobenzodioxolo)]-1,2,4-triazine]	–
4.9	6	Cc1ccc(-c2nc(=N)n(C)nc2-c2ccc(C)cc2)cc1 [CEN-134, 3-Amino-2-methyl-5,6-bis(4-methylphenyl)-1,2,4-triazine mesylate]	–
159	34	Nc1nnc(-c2ccc3ccccc3n2)c(N)n1 [CEN-173, 3,5-Diamino-6-(2-quinolyl)-1,2,4-triazine]	–
813	6	Nc1nnc(-c2cc(F)c(Cl)nc2Cl)c(N)n1 [CEN-190, 3,5-Diamino-6-[3-(2,6-dichloro-5-fluoropyidyl)]-1,2,4-triazine]	–
43.7	89	Cn1nc(-c2cc(Br)c(Br)o2)c(N)nc1=N [CEN-135, 5(3)-Amino-6-[2-(4,5-dibromofuryl)]-2,3(2,5)-dihydro-3(5)-imino-2-methyl-1,2,4-triazine methanesulfonate]	–
2570	76	Nc1nnc(-c2nc(Cl)ccc2Cl)c(N)n1 [CEN-188, 3,5-Diamino-6-[2-(3,6-dichloropyidyl)]-1,2,4-triazine]	–

IC50 (sodium channel) [µM]	inhibition at 125 µM [1] [%]	SMILES	other results
912	–	Nc1nnc(-c2ccco2)c(-c2ccco2)n1 [CEN-196, 3-Amino-5,6-bis(2-furyl)-1,2,4-triazine]	inhibition at 99 µM [1]: 41%
263	29	CCCC(CCC)c1nnc(N)nc1N [CEN-170, 3,5-Diamino-6-(1-propylbutyl)-1,2,4-triazine tosylate]	–
1000	95	Nc1nnc(-c2cnc(Cl)c(Cl)c2)c(N)n1 [CEN-168, 3,5-Diamino-6-[3-(5,6-dichloropyidyl)]-1,2,4-triazine]	–
12	57	CCn1nc(-c2cccc(-c3ccccc3)c2)c(N)nc1=N [CEN-162, 5(3)-Amino-6-(3-biphenyl)-2,3(2,5)-dihydro-3(5)-imino-2-ethyl-1,2,4-triazine methanesulfonate]	–
372	94	CC(C)OCCn1nc(-c2cccc(Cl)c2Cl)c(N)nc1=N [CEN-91, 5(3)-Amino-6-(2,3-dichlorophenyl)-2,3(2,5)-dihydro-3(5)-imino-2-(2-isopropoxy)ethyl-1,2,4-triazine]	–
–	–	Cn1cc(-c2cccc(Cl)c2Cl)c(N)nc1=N [CEN-42, 4(2)-Amino-5-(2,3-dichlorophenyl)-2,4(2,5)-dihydro-2(4)-imino-1-methyl pyrimidine]	IC50 (sodium channel; listed as 42): 617 µM; [3H]mtx binding (% inhibition @ 125 μM) ([1]; listed as 42, 125 µM): 32%
676	87	Cn1nc(-c2cccs2)c(N)nc1=N [CEN-61, 5(3)-Amino-6-(2-thienyl)-2,3(2,5)-dihydro-3(5)-imino-2-methyl-1,2,4-triazine methanesulfonate]	–
> 2000	-2	Nc1nnc(-c2cccnc2Oc2ccccc2)c(N)n1 [CEN-167, 3,5-Diamino-6-[3-(2-phenoxypyidyl)]-1,2,4-triazine]	–
97.7	53	C[n+]1cc(N)nc(N)c1-c1cc(Cl)cc(Cl)c1Cl [CEN-90]	–
–	–	Cn1cc(-c2cccc(Cl)c2Cl)c(N)nc1=N [CEN-43, 4(2)-Amino-5-(2,3-dichlorophenyl)-2,4(2,5)-dihydro-2(4)-imino-1-methylpyrimidine]	IC50 (sodium channel; listed as 43): 631 µM; [3H]mtx binding (% inhibition @ 125 μM) ([1]; listed as 43, 125 µM): 20%
58.9	25	Cn1nc(-c2ccc(Oc3ccccc3)cc2)c(N)nc1=N [CEN-102, 5(3)-Amino-6-(4-phenoxyphenyl)-2,3(2,5)-dihydro-3(5)-imino-2-methyl-1,2,4-triazine methanesulfonate]	–
724	101	Nc1cnc(-c2cccc3c2OC(F)(F)O3)c(N)n1 [CEN-89, 2,6-Diamino-3-(2,2-difluorobenzodioxol-4-yl)pyrazine]	–
9	–	Cn1nc(-c2sc(Cl)c(Cl)c2Cl)c(N)nc1=N [CEN-194, 5(3)-Amino-6-{2-(3,4,5-trichloro)thienyl}-2,3(2,5)-dihydro-3(5)-imino-2-methyl-1,2,4-triazine methanesulfonate]	inhibition at 99 µM [1]: -6%
955	70	Cn1nc(-c2ccc(Oc3ccc(-c4nn(C)c(=N)nc4N)cc3)cc2)c(N)nc1=N [CEN-116]	–
–	–	Nc1nnc(-c2cc(C(F)(F)F)cc(C(F)(F)F)c2)c(N)n1 [CEN-175, 3,5-Diamino-6-[3,5 (bis-trifluoromethyl)phenyl]-1,2,4-triazine]	IC50 (sodium channel; listed as 175): > 2000 µM; [3H]mtx binding (% inhibition @ 125 μM) ([1]; listed as 175, 125 µM): −4%
> 2000	-2	CC(C)c1cc(C(C)C)c(-c2nnc(N)nc2N)c(C(C)C)c1 [CEN-180, 3,5-Diamino-6-(2,4,6-triisopropylphenyl)-1,2,4-triazine tosylate]	–

SMILES	IC50 (sodium channel) [µM]	inhibition at 125 µM [1] [%]	other results
Cn1nc2c3ccccc3c3ccccc3c2nc1=N [CEN-136]	229	27	–
Nc1nnc(-c2cccc(C(F)(F)F)c2Cl)c(N)n1 [CEN-176, 3,5-Diamino-6-(2-chloro-3-trifluoromethylphenyl)-1,2,4-triazine]	309	55	–
